Test system: MCF-7 breast cancer cells
Assay: Microarray gene expression analysis (Agilent whole human genome 4 x 44K; compound vs DMSO, LIMMA log2 fold change)
Format: cell-based

**Q.** How did the “EYA1 log2FC” value (gene EYA1 (2138), apoptosis genes) turn out when `Oc1cccc(-c2nc(N3CCOCC3)c3oc4ncccc4c3n2)c1` [PI-103] was run?
**A.** 0.027

**Q.** What about the “log2FC EYA1” value (gene EYA1 (Gene 2138), cell cycle genes) of the same compound?
**A.** 0.027

**Q.** What about the “FABP1 log2FC” value (gene FABP1 (2168), apoptosis genes) of the same compound?
**A.** -0.014

**Q.** What about the “FAIM2 log2FC” value (gene FAIM2 (23017), apoptosis genes) of the same compound?
**A.** 0.077

**Q.** And the “FAM3B log2FC” value (gene FAM3B (54097), apoptosis genes)?
**A.** -0.110

**Q.** What about the “FAM32A log2FC” value (gene FAM32A (26017), apoptosis genes) of the same compound?
**A.** -0.300

**Q.** And the “log2FC FAM32A” value (gene FAM32A (Gene 26017), cell cycle genes)?
**A.** -0.30

**Q.** What about the log2FC (gene FAM58A (Gene 92002), cell cycle genes) of the same compound?
**A.** 0.17

**Q.** What about the “FAS log2FC” value (gene FAS (355), apoptosis genes) of the same compound?
**A.** -0.278

**Q.** What about the log2FC (gene FBXL15 (Gene 79176), cell cycle genes) of the same compound?
**A.** 0.25

**Q.** And the “log2FC FGFR1OP” value (gene FGFR1OP (Gene 11116), cell cycle genes)?
**A.** -0.20

**Q.** And the “FIS1 log2FC” value (gene FIS1 (51024), apoptosis genes)?
**A.** 0.161

**Q.** What about the “FKSG2 log2FC” value (gene FKSG2 (59347), apoptosis genes) of the same compound?
**A.** -0.076

**Q.** And the log2FC (gene FMN2 (Gene 56776), cell cycle genes)?
**A.** 0.00262

**Q.** And the “FOXB1 log2FC” value (gene FOXB1 (27023), apoptosis genes)?
**A.** -0.433

**Q.** What about the log2FC (gene FSD1 (Gene 79187), cell cycle genes) of the same compound?
**A.** -0.09

**Q.** And the “GADD45G log2FC” value (gene GADD45G (10912), apoptosis genes)?
**A.** -0.195

**Q.** What about the “GAPDH log2FC” value (gene GAPDH (2597), apoptosis genes) of the same compound?
**A.** 0.013

**Q.** And the log2FC (gene GAS2L1 (Gene 10634), cell cycle genes)?
**A.** -0.26

**Q.** And the “log2FC GAS2L2” value (gene GAS2L2 (Gene 246176), cell cycle genes)?
**A.** -0.00222

**Q.** And the “GAS6 log2FC” value (gene GAS6 (2621), apoptosis genes)?
**A.** -0.103

**Q.** And the “GATA6 log2FC” value (gene GATA6 (2627), apoptosis genes)?
**A.** 0.052

**Q.** What about the “log2FC GATA6” value (gene GATA6 (Gene 2627), cell cycle genes) of the same compound?
**A.** 0.05

**Q.** And the “GCG log2FC” value (gene GCG (2641), apoptosis genes)?
**A.** 0.035

**Q.** What about the “GCLM log2FC” value (gene GCLM (2730), apoptosis genes) of the same compound?
**A.** -0.246

**Q.** And the “GCM2 log2FC” value (gene GCM2 (9247), apoptosis genes)?
**A.** -0.063

**Q.** And the log2FC (gene GEM (Gene 2669), cell cycle genes)?
**A.** 0.84

**Q.** And the “GFRAL log2FC” value (gene GFRAL (389400), apoptosis genes)?
**A.** -0.028

**Q.** And the “GHRL log2FC” value (gene GHRL (51738), apoptosis genes)?
**A.** -0.060

**Q.** And the “GIMAP5 log2FC” value (gene GIMAP5 (55340), apoptosis genes)?
**A.** 0.028

**Q.** What about the “GJB6 log2FC” value (gene GJB6 (10804), apoptosis genes) of the same compound?
**A.** 0.090

**Q.** And the log2FC (gene GOLGA2 (Gene 2801), cell cycle genes)?
**A.** 0.24

**Q.** And the log2FC (gene GORASP1 (Gene 64689), cell cycle genes)?
**A.** 0.05

**Q.** What about the log2FC (gene GORASP2 (Gene 26003), cell cycle genes) of the same compound?
**A.** -0.48

**Q.** What about the “GPI log2FC” value (gene GPI (2821), apoptosis genes) of the same compound?
**A.** 0.047

**Q.** What about the “GPR65 log2FC” value (gene GPR65 (8477), apoptosis genes) of the same compound?
**A.** -0.016

**Q.** What about the “GRK1 log2FC” value (gene GRK1 (6011), apoptosis genes) of the same compound?
**A.** -0.053

**Q.** And the log2FC (gene GTPBP8 (Gene 29083), cell cycle genes)?
**A.** 0.10

**Q.** What about the log2FC (gene GTSE1 (Gene 51512), cell cycle genes) of the same compound?
**A.** -0.33

**Q.** What about the “log2FC H1FOO” value (gene H1FOO (Gene 132243), cell cycle genes) of the same compound?
**A.** 0.05

**Q.** And the “HCLS1 log2FC” value (gene HCLS1 (3059), apoptosis genes)?
**A.** 0.112

**Q.** And the log2FC (gene HELLS (Gene 3070), cell cycle genes)?
**A.** 0.14

**Q.** And the “HIPK3 log2FC” value (gene HIPK3 (10114), apoptosis genes)?
**A.** -0.044

**Q.** What about the “log2FC HORMAD2” value (gene HORMAD2 (Gene 150280), cell cycle genes) of the same compound?
**A.** 0.09

**Q.** And the “log2FC HPGD” value (gene HPGD (Gene 3248), cell cycle genes)?
**A.** 0.065

**Q.** And the “HPN log2FC” value (gene HPN (3249), apoptosis genes)?
**A.** -0.076

**Q.** What about the “HTRA2 log2FC” value (gene HTRA2 (27429), apoptosis genes) of the same compound?
**A.** 0.078

**Q.** What about the “log2FC HTRA2” value (gene HTRA2 (Gene 27429), cell cycle genes) of the same compound?
**A.** 0.08

**Q.** What about the “IFI6 log2FC” value (gene IFI6 (2537), apoptosis genes) of the same compound?
**A.** 0.0043

**Q.** And the “IFNA2 log2FC” value (gene IFNA2 (3440), apoptosis genes)?
**A.** 0.014

**Q.** And the “IFNB1 log2FC” value (gene IFNB1 (3456), apoptosis genes)?
**A.** 0.022

**Q.** What about the “IL1A log2FC” value (gene IL1A (3552), apoptosis genes) of the same compound?
**A.** -0.067

**Q.** And the “IL2RA log2FC” value (gene IL2RA (3559), apoptosis genes)?
**A.** -0.038

**Q.** What about the “IL2RB log2FC” value (gene IL2RB (3560), apoptosis genes) of the same compound?
**A.** -0.066

**Q.** And the “IL12A log2FC” value (gene IL12A (3592), apoptosis genes)?
**A.** -0.262

**Q.** What about the “log2FC IL12A” value (gene IL12A (Gene 3592), cell cycle genes) of the same compound?
**A.** -0.26

**Q.** And the “IL12B log2FC” value (gene IL12B (3593), apoptosis genes)?
**A.** -0.023

**Q.** What about the “IL17A log2FC” value (gene IL17A (3605), apoptosis genes) of the same compound?
**A.** 0.037

**Q.** What about the “IL19 log2FC” value (gene IL19 (29949), apoptosis genes) of the same compound?
**A.** -0.032

**Q.** And the “ILK log2FC” value (gene ILK (3611), apoptosis genes)?
**A.** -0.047

**Q.** What about the “log2FC ILKAP” value (gene ILKAP (Gene 80895), cell cycle genes) of the same compound?
**A.** -0.08

**Q.** What about the “INSL6 log2FC” value (gene INSL6 (11172), apoptosis genes) of the same compound?
**A.** 0.047

**Q.** And the “ISL1 log2FC” value (gene ISL1 (3670), apoptosis genes)?
**A.** -0.142

**Q.** And the “ITGA6 log2FC” value (gene ITGA6 (3655), apoptosis genes)?
**A.** -0.139

**Q.** And the “ITGB2 log2FC” value (gene ITGB2 (3689), apoptosis genes)?
**A.** 0.148

**Q.** What about the “ITM2C log2FC” value (gene ITM2C (81618), apoptosis genes) of the same compound?
**A.** 0.019

**Q.** What about the “log2FC KATNB1” value (gene KATNB1 (Gene 10300), cell cycle genes) of the same compound?
**A.** 0.26

**Q.** And the “log2FC KCNA5” value (gene KCNA5 (Gene 3741), cell cycle genes)?
**A.** -0.0139

**Q.** And the “KDR log2FC” value (gene KDR (3791), apoptosis genes)?
**A.** -0.033

**Q.** And the log2FC (gene KIAA0101 (Gene 9768), cell cycle genes)?
**A.** 0.28

**Q.** What about the “KIAA1324 log2FC” value (gene KIAA1324 (57535), apoptosis genes) of the same compound?
**A.** -0.031

**Q.** What about the “log2FC KIF2B” value (gene KIF2B (Gene 84643), cell cycle genes) of the same compound?
**A.** -0.17

**Q.** What about the log2FC (gene KIF13A (Gene 63971), cell cycle genes) of the same compound?
**A.** 0.06

**Q.** And the log2FC (gene KIF23 (Gene 9493), cell cycle genes)?
**A.** 0.55

**Q.** What about the “log2FC KIF25” value (gene KIF25 (Gene 3834), cell cycle genes) of the same compound?
**A.** 0.00228

**Q.** And the “KLF4 log2FC” value (gene KLF4 (9314), apoptosis genes)?
**A.** -0.178

**Q.** And the “KRT20 log2FC” value (gene KRT20 (54474), apoptosis genes)?
**A.** -0.013

**Q.** What about the “LALBA log2FC” value (gene LALBA (3906), apoptosis genes) of the same compound?
**A.** -0.012

Reference: article PMC4303209, “A novel phosphatidylinositol 3-kinase (PI3K) inhibitor directs a potent FOXO-dependent, p53-independent cell cycle arrest phenotype characterized by the differential induction of a subset of FOXO-regulated genes” (Breast Cancer Research : BCR, 2014)
